# Patent publication US12551437B2, “Liposome compositions comprising weak acid drugs and uses thereof” (Pharmosa Biopharm Inc., priority 2017, dated 2026)
# Tests used:
# [1] = Drug loading and encapsulation efficiency of liposome suspensions (G-25 column separation, HPLC); type: physicochemical; settings: drug loading at 40° C.
# Method: Liposome colloidal suspensions were prepared by ethanol injection technique. […] (DSPE-PEG2000) were dissolved in 2.86 ml of ethanol. The lipid solution in ethanol was injected into 17.4 ml of sodium acetate (200 mM or 400 mM) with vigorous stirring at 60° C. Liposomes were formed as soon as the lipid solution was in contact with sodium acetate. This was followed by extruding the liposome suspension through a 200 nm and a 100 nm polycarbonate membrane (six times, respectively). The liposome with about 100 nm was obtained and diafiltrated against a citrate buffer (pH 5.5) to form a higher inside/lower outside pH gradient between the external medium and the internal aqueous medium of the liposomes. The empty liposome suspension was then stored at 4° C. before drug loading process.
# PGE1 (alprostadil) was added to the liposome suspension in the preceding paragraph at various drug/lipid molar ratios at room temperature (25° C.) for 20 min. The PGE1 loaded liposome suspension was stored at 4° C.
# The liposome suspension was prepared according to the method described in Section 1.1, except that sodium acetate (200 mM or 400 mM) was replaced by sodium bicarbonate (e.g. 200 mM, 400 mM or other concentrations).
# The amount of the drug encapsulated into the liposome was quantified using Waters Alliance® HPLC system with a Photodiode Array (PDA) Detector. […] Separation was performed in C18 Column (Phenomenex Prodigy 5U ODS-3 150×4.6 mm), and then post-reaction was carried out by mixed with IN of KOH at 65° C. The peak of the drug e.g. PGE1 was detected at 280 nm. The retention time was about 4.6 minutes.
# Encapsulation efficiency (EE), i.e. the percentage of the drug encapsulated (or loaded) in the internal aqueous medium of the liposomes to the total amount of the drug present in the liposome suspension (i.e. drug in the external medium and drug loaded into the internal aqueous medium of the liposomes) was quantified as follows. Briefly, the liposome suspension was subjected to column chromatography. The free or non-associated drug (i.e. the drug in the external medium) and the liposomes containing the encapsulated drugs in the internal aqueous medium were separated from each other by eluting the liposome suspension through a G-25 column. The amount of the free drug was determined using Waters HPLC with PDA detection, and the amount of the encapsulated drug in the internal aqueous medium of the liposome, after destructing the liposomes with methanol (90% methanol and 10% liposome suspension), was also determined using the same method. The encapsulation efficiency was calculated using the following formula,
# [formula] where L is the amount of the encapsulated drug in the internal aqueous medium of the liposomes, and F is the amount of the free drug in the external medium.
# In addition, the internal drug concentration (mM) was calculated as follows. Internal drug concentration (mM)=[Drug [μg/mL]×EE %/molecular weight]/[trapped volume*]
# [2] = test system: pulmonary hypertension; test: Hypoxia-induced pulmonary hypertension in rats, mean pulmonary arterial pressure (PAP); type: in vivo, Sprague Dawley rats; settings: treprostinil at 6 μg/kg, single dose, microsprayer at the trachea bifurcation, hypoxic rats (FiO2=0.1)
# Method: To induce pulmonary hypertension, a pressure catheter was inserted into the pulmonary artery of each rat. One end of the catheter was exposed at the nape of the neck and connected to a pressure transducer. 24 Hours after the catheter insertion, the rats were transferred into a hypoxic chamber where the oxygen (O2) level was reduced to 10% (FiO2=0.1) by increasing the level of nitrogen (N2). Once stable pulmonary hypertension was established, each rat was administered with a single dose of the three test articles: saline (N=6), free treprostinil at 6 μg/kg (N=6) or the pharmaceutical composition of Example 4 with treprostinil at 6 μg/kg (liposomal treprostinil, N=6). The test article was administered using a microsprayer at the trachea bifurcation of the rat. Following the test article administration, mean pulmonary arterial pressure (PAP) was measured at scheduled time points.
# [3] = liposomal formulation (4-2) HSPC:cholesterol:DSPG 3:2:0.075, internal bicarbonate salt 400 mM
# [4] = liposomal formulation (4-3) DPPC:Cholesterol:DSPE-mPEG2000 3:2:0.075, internal bicarbonate salt 400 mM
# [5] = liposomal formulation (4-4) DSPC:DPPC:Cholesterol:mPEG2000-DSPE 2.7:0.3:2:0.075, internal bicarbonate salt 250 mM
# [6] = liposomal formulation (4-5) HSPC:Cholesterol:mPEG2000-DSPE:stearylamine 3:2:0.075:0.025, internal bicarbonate salt 400 mM
# [7] = liposomal formulation (4-6) HSPC:DMPC:Cholesterol:mPEG2000-DSPE 2.7:0.3:2:0.075, internal bicarbonate salt 400 mM
structure (smiles),measurement,setting,value
"CCCCC[C@H](O)CC[C@@H]1[C@H]2Cc3cccc(OCC(=O)O)c3C[C@H]2C[C@H]1O [Prostacycline (treprostinil), treprostinil]",E.E.,[1]; [3],97.6%
same,Internal [drug],[1]; [3],121.78 mM
same,Internal drug to internal salt molar ratio,[1]; [3],0.304
same,Measured [drug],[1]; [3],1530.0 µg/mL
same,E.E.,[1]; [4],90.4%
same,Internal [drug],[1]; [4],115.01 mM
same,Internal drug to internal salt molar ratio,[1]; [4],0.288
same,Measured [drug],[1]; [4],1560 µg/mL
same,E.E.,[1]; [5],97.4%
same,Internal [drug],[1]; [5],77.84 mM
same,Internal drug to internal salt molar ratio,[1]; [5],0.311
same,Measured [drug],[1]; [5],980 µg/mL
same,E.E.,[1]; [6],93.7%
same,Internal [drug],[1]; [6],114.62 mM
same,Internal drug to internal salt molar ratio,[1]; [6],0.287
same,Measured [drug],[1]; [6],1500 µg/mL
same,E.E.,[1]; [7],94.5%
same,Internal [drug],[1]; [7],119.45 mM
same,Internal drug to internal salt molar ratio,[1]; [7],0.299
same,Measured [drug],[1]; [7],1550 µg/mL
same,maximum reduction of mean PAP,[2],20%
